# Source: patent US11730743B2, “Protection of cells from degeneration and treatment of geographic atrophy” (University of Kentucky Research Foundation, priority 2012, dated 2023)
# The star is where a group is joined. Cbz = O=C(OCc1ccccc1)*; CH2F = FC*
# Experiments:
# wild-type mice [1] = assay: Alu RNA- or pAlu-induced RPE degeneration after subretinal injection (fundus photographs, ZO-1 flat mounts); assay type: in vivo; conditions: test agent intravitreous; for pAlu-induced RPE degeneration: subretinal pAlu
# Method: Subretinal injection and imaging. Subretinal injections (1 μL) in mice were performed using a Pico-Injector (PLI-100, Harvard Apparatus). In vivo transfection of plasmids was achieved using 10% Neuroporter (Genlantis). Fundus imaging was performed on a TRC-50 IX camera (Topcon) linked to a digital imaging system (Sony). Immunolabeling of RPE flat mounts was performed using antibodies against human zonula occludens-1 (Invitrogen).
# (§1) Fundus photography. Retinal photographs of dilated mouse eyes were taken with a TRC-50 IX camera (Topcon) linked to a digital imaging system (Sony).
# (§2) Immunolabeling. Human eyes fixed in 2-4% paraformaldehyde were prepared as eyecups, cryoprotected in 30% sucrose, embedded in optimal cutting temperature compound (Tissue-Tek OCT; Sakura Finetek), and cryosectioned into 10 μm sections. Depigmentation was achieved using 0.25% potassium permanganate and 0.1% oxalic acid. Immunohistochemical staining was performed with the rabbit antibody against NLRP3 (1:100, Sigma Aldrich) or rabbit antibody against Caspase-1 (prediluted, AbCam). Isotype IgG was substituted for the primary antibody to assess the specificity of the staining. Bound antibody was detected with biotin-conjugated secondary antibodies, followed by incubation with ABC reagent and visualized by Vector Blue (Vector Laboratories). Levamisole (Vector Laboratories) was used to block endogenous alkaline phosphatase activity. Slides were washed in PBS, counterstained with neutral red (Fisher Scientific), rinsed with deionized water, air dried, and then mounted in Vectamount (Vector Laboratories). Fluorescent labeling of human tissue was performed with the rabbit antibody against PYCARD (1:50, Clone N-15, Santa Cruz Biotechnology). Immunolabeling was visualized by fluorescently conjugated anti-rabbit secondary antibody (Invitrogen). Tissue autofluorescence was quenched by incubating the sections in 0.3% Sudan black (Fisher Scientific). Sections were mounted in Vectashield with DAPI (Vector Laboratories). Mouse RPE/choroid flat mounts were fixed with 4% paraformaldehyde or 100% methanol, stained with rabbit antibodies against human zonula occludens-1 (1:100, Invitrogen) and visualized with Alexa594 (Invitrogen). All images were obtained using the Leica SP-5 or Zeiss Axio Observer Z1 microscopes.
# Subretinal injection. Subretinal injections (1 μL) in mice were performed using a Pico-Injector (PLI-100, Harvard Apparatus). In vivo transfection of plasmids coding for two different Alu sequences (pAlu) or empty control vector (pNull) (Bennett et al., 2008; Kaneko et al., 2011; Shaikh et al., 1997) was achieved using 10% Neuroporter (Genlantis). AAV1-BEST1-Cre (Alexander and Hauswirth, 2008) or AAV1-BEST1-GFP were injected at […] pfu/mL and in vitro transcribed Alu RNA was injected at 0.3 mg/mL.
# (§3) Drug treatments. siRNAs formulated in siRNA buffer (20 mM KCL, 0.2 mM MgCl2 in HEPES buffer at pH 7.5; Dharmacon) or phosphate buffered saline (PBS; Sigma-Aldrich); the TLR4 antagonist Ultra Pure Rhodobacter sphaeroides LPS (LPS-RS, InvivoGen), a peptide inhibitor of MyD88 homodimerization IMG-2005 (IMGENEX), control inhibitor (IMGENEX), recombinant IL-18 (Medical & Biological Laboratories), neutralizing rat antibodies against mouse IL-1β (IMGENEX), neutralizing rat antibodies against mouse IL-18 (Medical & Biological Laboratories), isotype control IgGs (R&D Systems or eBioscience as appropriate), Caspase-1 inhibitor Z-WEHD-FMK (R&D Systems), Caspase-3 inhibitor Z-DEVD-FMK (R&D Systems), Caspase control inhibitor Z-FA-FMK (R&D Systems), (2R,4R)-APDC (Enzo Life Sciences), Glipizide (Sigma-Aldrich), Glyburide (Sigma-Aldrich), and P2X7 receptor antagonist A438079 (Tocris Bioscience) were dissolved in phosphate buffered saline (PBS; Sigma-Aldrich) or dimethyl sulfoxide (DMSO; Sigma-Aldrich), and injected into the vitreous humor in a total volume of 1 μL with a 33-gauge Exmire microsyringe (Ito Corporation). […]
# human RPE cells = tested on: human RPE cells
# Method: Cell viability. Cell viability measurements were performed using the CellTiter 96 AQueous One Solution Cell Proliferation Assay (Promega) in according to the manufacturer's instructions.
# Cell culture. All cell cultures were maintained at 37° C. and 5% CO2. Primary mouse RPE cells were isolated as previously described (Yang et al., 2009) and grown in Dulbecco Modified Eagle Medium (DMEM) supplemented with 20% FBS and standard antibiotics concentrations. Primary human RPE cells were isolated as previously described (Yang et al., 2008) and maintained in DMEM supplemented with 10% FBS and antibiotics. HeLa cells were maintained in DMEM supplemented with 20% FBS and standard antibiotics concentrations. THP-1 cells were cultured in RPMI 1640 medium supplemented with 10% FBS and antibiotics.
# Transient transfection. Human or mouse RPE cells were transfected with pUC19, pAlu, pCDNA3.1/Dicer-FLAG, pCDNA3.1, Alu RNA, NLRP3 siRNA sense, PYCARD siRNA sense, MyD88 siRNA sense, DICER1 antisense oligonucleotide (AS), control (for DICER1) AS, Alu AS, and control (for Alu) AS using Lipofectamine 2000 (Invitrogen) according to the manufacturer's instructions.
# Cell viability. MTS assays were performed using the CellTiter 96 AQueous One Solution Cell Proliferation Assay (Promega) according to the manufacturer's instructions. For examining the cytoprotective effect of glycine in Alu RNA induced cell death, human RPE cells were transfected with pNull/pAlu. At 6 h post-transfection the cells were incubated with complete media containing glycine (5 mM) or vehicle, and cell viability was assessed after 24 h. Similarly, human RPE cells primed with LPS (5 μg/ml for 6 h) were treated with ATP (25 μM) in the presence of glycine containing media (5 mM). 30 min post ATP cell viability was assessed as described above.
# wild-type mice [2] = assay: Laser-induced choroidal neovascularization; assay type: in vivo; conditions: intravitreous injection
# Dicer1f/f mice = assay: RPE degeneration induced by subretinal AAV1-BEST1-Cre (DICER1 loss); assay type: in vivo; conditions: inhibitor intravitreous
# Method: as §2, with “Sections were mounted in Vectashield with DAPI (Vector Laboratories). Mouse RPE/choroid flat mounts were fixed with 4% paraformaldehyde or 100% methanol, stained with rabbit antibodies against human zonula occludens-1 (1:100, Invitrogen) and visualized with Alexa594 (Invitrogen). All images were obtained using the Leica SP-5 or Zeiss Axio Observer Z1 microscopes.” left out
# IRAK1/4 = assay: Western blot of phosphorylated IRAK1/4 in human RPE cells; assay type: cell-based; conditions: normalized to Vinculin
# Method: (§4) Protein abundance and activity. Protein abundance was assessed by Western blot analysis using primary antibodies recognizing Caspase-1 (1:500; Invitrogen), pIRAK1 (1:500; Thermo Scientific), pIRAK4 (1:500, Abbomax, Inc), PYCARD (1:200, Santa Cruz Biotechnology), NLRP3 (1:500, Enzo Life Sciences) and Vinculin (1:1,000; Sigma-Aldrich). Caspase-1 activity was visualized using Caspalux1 E1D2 (OncoImmunin) reagent according to the manufacturer's instructions.
# Western blotting. Tissues or cells were homogenized in lysis buffer (10 mM Tris base, pH 7.4, 150 mM NaCl, 1 mM EDTA, 1 mM EGTA, 1% Triton X-100, 0.5% NP-40, protease and phosphatase inhibitor cocktail (Roche)). Protein concentrations were determined using a Bradford assay kit (Bio-Rad) with bovine serum albumin as a standard. Proteins (40-100 μg) were run on NuPAGE Bis-Tris gels (Invitrogen) and transferred to Immun-Blot PVDF membranes (Bio-Rad). Cells were scraped in hot Laemmli buffer (62.5 mM Tris base, pH 6.8, 2% SDS, 5% 2-Mercaptoethanol, 10% Glycerol, 0.01% Bromophenol Blue). Samples were boiled and run on 4-20% NuPAGE Tris-Glycine gels (Invitrogen). […] Protein loading was assessed by immunoblotting using an anti-Vinculin antibody (1:1,000; Sigma-Aldrich). […]
# Caspase-1 = target: T1, Caspase-1 (Homo sapiens, UniProt P29466); assay: Caspase-1 activation in cultured cells (western blot p20, Caspalux1 substrate cleavage); assay type: cell-based; conditions: human RPE cells; Caspalux1
# T1 construct: endogenous in cells; host or cells: primary human RPE cells; also THP-1 and HeLa cells
# T1 sequence (P29466 120-297 limits assumed): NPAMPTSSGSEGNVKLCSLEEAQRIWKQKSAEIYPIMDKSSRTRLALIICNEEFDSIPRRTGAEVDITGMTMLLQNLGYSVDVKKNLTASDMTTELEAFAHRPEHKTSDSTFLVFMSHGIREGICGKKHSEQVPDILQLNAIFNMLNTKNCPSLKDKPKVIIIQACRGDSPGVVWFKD
# T1 sequence (P29466 317-404 limits assumed): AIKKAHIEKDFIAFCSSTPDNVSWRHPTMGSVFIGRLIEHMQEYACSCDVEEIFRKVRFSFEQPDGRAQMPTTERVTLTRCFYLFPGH
# Method: as §4
# Western blotting. Tissues or cells were homogenized in lysis buffer (10 mM Tris base, pH 7.4, 150 mM NaCl, 1 mM EDTA, 1 mM EGTA, 1% Triton X-100, 0.5% NP-40, protease and phosphatase inhibitor cocktail (Roche)). Protein concentrations were determined using a Bradford assay kit (Bio-Rad) with bovine serum albumin as a standard. Proteins (40-100 μg) were run on NuPAGE Bis-Tris gels (Invitrogen) and transferred to Immun-Blot PVDF membranes (Bio-Rad). Cells were scraped in hot Laemmli buffer (62.5 mM Tris base, pH 6.8, 2% SDS, 5% 2-Mercaptoethanol, 10% Glycerol, 0.01% Bromophenol Blue). Samples were boiled and run on 4-20% NuPAGE Tris-Glycine gels (Invitrogen). The transferred membranes were blocked for 1 h at RT and incubated with antibodies against human Caspase-1 (1:500; Invitrogen), mouse Caspase1 (1:500; MBL), NLRP3 (1:1000; Enzo Life Sciences), PYCARD (1:1000, RayBiotech), phospho-IRAK1 (S376) (1:500, Thermo Scientific), phospho-IRAK4 (T345) (1:500, AbboMax), DICER1 (1:2,000; Bethyl), MyD88 (1:1,000; Cell Signaling), and mouse IL-18 (1:200; MBL) at 4° C. overnight. Protein loading was assessed by immunoblotting using an anti-Vinculin antibody (1:1,000; Sigma-Aldrich). The secondary antibodies were used (1:5,000) for 1 h at RT. […]
# Caspase-1 activity. […] Caspalux1E1D2 signal was quantified reading the fluorescence (excitation 552 nm, emission 580 nm) using a Synergy 4 reader (Biotek). Quantification of fluorescence from images was performed by converting images into grayscale in Adobe Photoshop CS5, and measuring the integrated density of black and white images using ImageJ software (NIH) (Bogdanovich et al., 2008).
# IL-18 = assay: Western blot of IL-18 maturation in RPE cell lysates of wild-type mice; assay type: in vivo; conditions: inhibitor intravitreous
# Method: as §3
# Western blotting. […] Protein concentrations were determined using a Bradford assay kit (Bio-Rad) with bovine serum albumin as a standard. […] Protein loading was assessed by immunoblotting using an anti-Vinculin antibody (1:1,000; Sigma-Aldrich). […]
# mice = assay: RPE degeneration induced by intravitreous recombinant IL-18; assay type: in vivo; conditions: for RPE degeneration induced by recombinant IL-18: intravitreous
# Method: as §1
# as §2, with “microscopes. […]” for “microscopes.”
# Caspase-3 = Caspase-3 activation in the RPE of wild-type mice; assay type: in vivo; conditions: IL-18 alone
# Method: Drug treatments. siRNAs formulated in siRNA buffer (20 mM KCL, 0.2 mM MgCl2 in HEPES buffer at pH 7.5; Dharmacon) or phosphate buffered saline (PBS; Sigma-Aldrich); the TLR4 antagonist Ultra Pure Rhodobacter sphaeroides LPS (LPS-RS, InvivoGen), a peptide inhibitor of MyD88 homodimerization IMG-2005 (IMGENEX), control inhibitor (IMGENEX), recombinant IL-18 (Medical & Biological Laboratories), neutralizing rat antibodies against mouse IL-1β (IMGENEX), neutralizing rat antibodies against mouse IL-18 (Medical & Biological Laboratories), isotype control IgGs (R&D Systems or eBioscience as appropriate), Caspase-1 inhibitor Z-WEHD-FMK (R&D Systems), Caspase-3 inhibitor Z-DEVD-FMK (R&D Systems), Caspase control inhibitor Z-FA-FMK (R&D Systems), (2R,4R)-APDC (Enzo Life Sciences), Glipizide (Sigma-Aldrich), Glyburide (Sigma-Aldrich), and P2X7 receptor antagonist A438079 (Tocris Bioscience) were dissolved in phosphate buffered saline (PBS; Sigma-Aldrich) or dimethyl sulfoxide (DMSO; Sigma-Aldrich), and injected into the vitreous humor in a total volume of 1 μL with a 33-gauge Exmire microsyringe (Ito Corporation). […] As a control, Luc siRNA-chol (17+2 nt) was used with identical dosages.
# Caspase-3 activity. The caspase-3 activity was measured using Caspase-3 Fluorimetric Assay (R&D Systems) according to the manufacturer's instruction.
molecule,measurement,setting,value
Clc1cccc(-c2nnnn2Cc2cccnc2)c1Cl [A438079],pAlu-induced RPE degeneration,wild-type mice [1],blocked
O=C(Nc1nc2ccccc2n1CCN1CCOCC1)c1cccc([N+](=O)[O-])c1 [N-(2-Morpholinylethyl)-2-(3-nitrobenzoylamido)-benzimidazole],Alu RNA-induced RPE degeneration,wild-type mice [1]; subretinal Alu RNA,blocked
same,"Alu RNA-induced cytotoxicity, viability of human RPE cells",human RPE cells,protects
same,"pAlu-induced cytotoxicity, viability of human RPE cells",human RPE cells,protects
same,laser-induced choroidal neovascularization,wild-type mice [2],reduced
"COc1ccc(Cl)cc1C(=O)NCCc1ccc(S(=O)(=O)NC(=O)NC2CCCCC2)cc1 [glyburide, Glyburide]",pAlu-induced RPE degeneration,wild-type mice [1],inhibited
NCC(=O)O [glycine],human RPE cell death induced by LPS+ATP,"human RPE cells; LPS 5 μg/ml 6 h, ATP 25 μM, glycine 5 mM, 30 min post ATP",inhibited
Cbz-WEHD-CH2F,pAlu-induced RPE degeneration,wild-type mice [1],blocked
same,AAV1-BEST1-Cre-induced RPE degeneration,Dicer1f/f mice,blocked
same,Alu RNA-induced phosphorylation of IRAK1/4,IRAK1/4,reduced
same,Alu RNA-induced fluorescent substrate cleavage (Caspase-1 activity),Caspase-1,blocked
same,pAlu-induced IL-18 maturation,IL-18,blocked
Z-DEVD-FMK,IL-18-induced RPE degeneration,"mice; wild-type mice, inhibitor intravitreous",blocked
"Recombinant IL-18: recombinant IL-18 (Medical & Biological Laboratories) (protein, UniProt P70380 36-192, looked up) Interleukin-18: NFGRLHCTTAVIRNINDQVLFVDKRQPVFEDMTDIDQSASEPQTRLIIYMYKDSEVRGLAVTLSVKDSKMSTLSCKNKIISFEEMDPPENIDDIQSDLIFFQKRVPGHNKMEFESSLYEGHFLACQKEDDAFKLILKKKDENGDKSVMFTLTNLHQS",RPE degeneration induced by recombinant IL-18,mice; Casp1−/− mice,induced RPE degeneration
same,RPE degeneration induced by recombinant IL-18,mice; wild-type mice,induced RPE degeneration
same,Caspase-3 activation in the RPE,Caspase-3,induced Caspase-3 activation
